Data: PubChem BioAssay AID248 (DTP/NCI, 2004)
Toxic doses and inconclusive results are not listed. No stated cut-off is given here; in the data, active means T/C of 150% or more; inactive means T/C below 125%.

System: L1210 leukemia ip in BDF1 mice, survival T/C
Experiment: NCI In Vivo Anticancer Drug Screen. Data for tumor model L1210 Leukemia (intraperitoneal) in B6D2F1 (BDF1) mice
Settings: endpoint: mean survival time, higher = longer survival
Procedure, shortened: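 Tumor cells were implanted, animals were treated, and survival was followed. The result divides the treated measurement by the vehicle-control measurement.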

[1] = dose: 100.0 mg/kg/injection, schedule: Q01DX001 (ip), vehicle: Klucel (hydroxypropylcellulose) (HPC)
[2] = dose: 200.0 mg/kg/injection, schedule: Q01DX001 (ip), vehicle: Klucel (hydroxypropylcellulose) (HPC)
[3] = dose: 100.0 mg/kg/injection, schedule: Q04DX003 (ip), vehicle: Klucel (hydroxypropylcellulose) (HPC)
[4] = dose: 200.0 mg/kg/injection, schedule: Q04DX003 (ip), vehicle: Klucel (hydroxypropylcellulose) (HPC)
[5] = dose: 400.0 mg/kg/injection, schedule: Q04DX003 (ip), vehicle: Klucel (hydroxypropylcellulose) (HPC)

Measured: T/C

CC(C)N(C(=S)[S-])C(C)C.CC(C)N(C(=S)[S-])C(C)C.[Zn]
inactive: dose: 37.5 mg/kg/injection, schedule: Q01DX009 (ip), vehicle: saline 89 % of control | dose: 75.0 mg/kg/injection, schedule: Q01DX001 (ip), vehicle: acetone 97 % of control | dose: 75.0 mg/kg/injection, schedule: Q01DX009 (ip), vehicle: saline 90 % of control | dose: 75.0 mg/kg/injection, schedule: Q04DX003 (ip), vehicle: saline 101 % of control | dose: 150.0 mg/kg/injection, schedule: Q01DX001 (ip), vehicle: acetone 92 % of control | dose: 150.0 mg/kg/injection, schedule: Q01DX009 (ip), vehicle: saline 86 % of control | dose: 150.0 mg/kg/injection, schedule: Q04DX003 (ip), vehicle: saline 90 % of control | dose: 300.0 mg/kg/injection, schedule: Q01DX001 (ip), vehicle: acetone 93 % of control | dose: 300.0 mg/kg/injection, schedule: Q04DX003 (ip), vehicle: saline 86 % of control

OC1CCCCC1Sc1ccccc1 (centres undefined)
inactive: dose: 100.0 mg/kg/injection, schedule: Q04DX002 (ip), vehicle: saline with Tween-80 117 % of control | dose: 200.0 mg/kg/injection, schedule: Q04DX002 (ip), vehicle: saline with Tween-80 111 % of control | dose: 400.0 mg/kg/injection, schedule: Q04DX002 (ip), vehicle: saline with Tween-80 105 % of control

OC1COCOC1 (tested in a mixture with another compound)
inactive: dose: 100.0 mg/kg/injection, schedule: Q01DX009 (ip), vehicle: saline 104 % of control | dose: 100.0 mg/kg/injection, schedule: Q04DX003 (ip), vehicle: saline 105 % of control | dose: 200.0 mg/kg/injection, schedule: Q01DX009 (ip), vehicle: saline 104 % of control | dose: 200.0 mg/kg/injection, schedule: Q04DX003 (ip), vehicle: saline 102 % of control | dose: 400.0 mg/kg/injection, schedule: Q01DX009 (ip), vehicle: saline 111 % of control | dose: 400.0 mg/kg/injection, schedule: Q04DX003 (ip), vehicle: saline 109 % of control

Nc1nc(N)nc(N)n1 (tested in a mixture with another compound)
inactive: dose: 100.0 mg/kg/injection, schedule: Q04DX003 (ip), vehicle: saline with Tween-80 89 % of control | dose: 200.0 mg/kg/injection, schedule: Q04DX003 (ip), vehicle: saline with Tween-80 89 % of control

O=C1c2ccccc2C(=O)N1CCCO
inactive: dose: 50.0 mg/kg/injection, schedule: Q01DX001 (ip), vehicle: Klucel (hydroxypropylcellulose) (HPC) 96 % of control | [1] 100 % of control | [2] 102 % of control

S=P(/C=C/c1ccccc1)(c1ccccc1)c1ccccc1
inactive: dose: 100.0 mg/kg/injection, schedule: Q01DX009 (ip), vehicle: Klucel (hydroxypropylcellulose) (HPC) 97 % of control | [3] 95 % of control | dose: 200.0 mg/kg/injection, schedule: Q01DX009 (ip), vehicle: Klucel (hydroxypropylcellulose) (HPC) 92 % of control | [4] 92 % of control | [5] 92 % of control

O=C(OCC1OC(n2ccc(=O)nc2[Se])C(OC(=O)c2ccccc2)C1OC(=O)c1ccccc1)c1ccccc1 (centres undefined)
inactive: dose: 100.0 mg/kg/injection, schedule: Q01DX005 (ip), vehicle: saline 89 % of control | dose: 200.0 mg/kg/injection, schedule: Q01DX005 (ip), vehicle: saline 96 % of control

COc1ccc(OC)c(C(=S)N2CCOCC2)c1
inactive: [1] 94 % of control | [3] 96 % of control | [2] 102 % of control | [4] 96 % of control | dose: 400.0 mg/kg/injection, schedule: Q01DX001 (ip), vehicle: Klucel (hydroxypropylcellulose) (HPC) 100 % of control | [5] 96 % of control

NC(=S)Nc1ccccc1Cl
inactive: dose: 100.0 mg/kg/injection, schedule: Q01DX001 (ip), vehicle: saline 103 % of control | dose: 200.0 mg/kg/injection, schedule: Q01DX001 (ip), vehicle: saline 101 % of control

C[C@@H]1C[C@@]2(C)[C@@H](CC[C@@H]3[C@@H]2CC[C@]2(C)[C@@H](O)CC[C@@H]32)C[C@@H]1O
inactive: dose: 62.5 mg/kg/injection, schedule: Q01DX015 (sc), vehicle: steriod suspending solution 100 % of control | dose: 125.0 mg/kg/injection, schedule: Q01DX015 (sc), vehicle: steriod suspending solution 94 % of control | dose: 250.0 mg/kg/injection, schedule: Q01DX015 (sc), vehicle: steriod suspending solution 102 % of control | dose: 500.0 mg/kg/injection, schedule: Q01DX015 (sc), vehicle: steriod suspending solution 94 % of control

CC(C)(C)NC(=O)Nc1nccs1
inactive: dose: 100.0 mg/kg/injection, schedule: Q01DX009 (ip), vehicle: other 100 % of control | dose: 200.0 mg/kg/injection, schedule: Q01DX009 (ip), vehicle: other 107 % of control
